Test results: patent US20200164005A1, “PHARMACEUTICAL COMPOSITIONS OF A BILE ACID DERIVATIVE AND MICROBIOME AND USES THEREOF” (Intercept Pharmaceuticals, Inc., priority 2017, published 2020)

Key:
[1] = system: Lactococcus lactis, Streptococcus thermophilus, and Lactobacillus casei/paracasei; experiment: Minimal inhibitory concentrations (MIC) of bile acids and OCA, aerobic and anaerobic; type: cell-based; details: millimolar range; aerobic and anaerobic
Text: FIGS. 58A-58B: Minimal inhibitory concentrations (MICs) of selected Gram-positive bacterial species in response treatment with two endogenous bile acids and OCA. […] N=3 per measurement. […] N=3 per measurement.
a (Begley et al., FEMS Microbiol Rev. 29, 625-651 (2005)), and conducted genomic analysis is consistent with the notion that specific Gram-positive taxa become proportionally more abundant during OCA administration due to enhanced proliferation. FXR-dependent inhibition of endogenous bile acid synthesis by OCA may reduce the growth inhibitory effects on Gram-positive bacterial species that are normally sensitive to bile acids. To determine if the three bacterial species with the greatest representation of pathways associated with OCA (FIG. 57A) are sensitive to bile acids, the species-specific minimal inhibitory concentrations (MIC) of the two most predominant bile acids in the human small intestine, glycochenodeoxycholic acid (GCDCA) and glycocholic acid (GCA) were determined (FIG. 58A). Since the environment of the small intestinal lumen may transition from an aerobic to anaerobic state along its length (He et al., Proceedings of the National Academy of Sciences of the United States of America, 96, 4586-4591 (1999)), MICs were determined under both aerobic and anaerobic conditions. […] Consistent with this notion, it has been shown that bile salt hydrolases (BSH), enzymes that are unique to bacteria resident in the mammalian gut where they can enhance bile acid tolerance (Begley et al., FEMS Microbiol Rev. 29, 625-651 (2005)), are missing from the genome of S. thermophilus, which is induced by OCA. It can be supported by showing that these species are sensitive to growth inhibition in vitro when exposed to physiologically-relevant concentrations of conjugated bile acids found in the small intestine. […] Since OCA is a bile acid analogue possibly capable of inhibiting bacterial growth, the MICs of OCA for the same bacterial species were determined (FIG. 58B). […] These findings support the notion that OCA treatment leads to the increased growth of bile acid sensitive bacterial taxa by suppressing endogenous bile acid synthesis.

[2] = system: bacterial strains found in the human small intestine; experiment: Inhibition of bacterial growth by bile acids, microbroth dilution, optical density at 630 nm; type: cell-based; details: aerobic or anaerobic
Protocol: The toxicity of several bile acids to various gut microbiome species was examined. Representative species were exposed to different bile acids at a range of concentrations under either aerobic or anaerobic condition, and the growth of the species at these concentrations was measured by determining the optical density of the culture.
Lactobacillus casei CP was purchased from Custom Probiotics Inc. (Glendale, Calif.) as L. casei Custom Probiotic Powder (strain confirmed by Sanger sequencing of the 16S gene). Pediococcus pentosaceus KE-99 was purchased from Probiohealth (Beverly Hills, Calif.) as KE-99 LACTO Tablet (strain confirmed by Sanger sequencing of the 16S gene). L. casei 393, Streptoccocus thermophilus LMD-9, Akkermansia muciniphila Muc, and Veillonella parvula Te3 were purchased from the American Type Culture Collection (ATCC, Manassas, Va.). Lactococcus lactis NZ9000 was purchased from BOCA Scientific (Boca Raton, Fla.). Escherichia coli Nissle was obtained from Dr. Mark Goulian (University of Pennsylvania, Philadelphia, Pa.).
L. casei, P. pentasaceus, and L. lactis were grown in de Man, Rogosa, and Sharpe (MRS) medium (Anaerobe Systems, Morgan Hill, Calif.); E. coli was grown in lysogeny broth (LB) medium (Fisher Scientific, USA); S. thermophilus and A. muciniphila were grown in brain heart infusion (BHI) medium (Fisher Scientific, USA and Anaerobe Systems, Morgan Hill, Calif.), and; V. parvula was grown in reinforced clostridial medium (Fisher Scientific, USA). Aerobic cultures were incubated at 37° C.; anaerobic cultures were incubated at 37° C. in an anaerobic glove box (Coy Laboratories, Grass Lake, Mich.).
Glycochenodeoxycholic, glycocholic, and taurocholic acids were purchased from Sigma Aldrich (St. Louis, Mo.). Obeticholic acid was provided by Intercept Pharmaceuticals, Inc. (New York, N.Y.).
Inhibition of bacterial growth by bile acids was determined by the microbroth dilution method. Plates were prepared with 100 uL of medium containing the appropriate concentrations of bile acid. Wells were inoculated with 1 uL of an overnight culture, covered, and incubated overnight (3 days for A. muciniphila and V. parvula, which are slow growing organisms). Growth was measured via optical density at 630 nm, and measurements were zeroed against wells containing the appropriate bile acid level with no bacteria. All tests were performed in triplicate. Data is expressed as the percent (%) reduction in growth, which was calculated against controls (i.e., no bile acids). The responses of representative species to different concentrations of bile acids are illustrated by the heat maps shown in FIGS. 53A-53D.

C[C@H](CCC(=O)NCC(=O)O)[C@H]1CC[C@H]2[C@@H]3[C@H](O)C[C@@H]4C[C@H](O)CC[C@]4(C)[C@H]3C[C@H](O)[C@]12C [GCA, glycocholic acid, reference compound]
growth of all three species at physiologically relevant concentrations [1]: significantly inhibited
growth inhibitory effects on various strains of gram positive bacteria [2]: differential growth inhibitory effects

CC(CCC(=O)NCC(=O)O)C1CCC2C3C(O)CC4CC(O)CCC4(C)C3CCC12C (centres unmarked) [GCDCA, glycochenodeoxycholic acid, reference compound]
growth of all three species at physiologically relevant concentrations [1]: significantly inhibited
growth inhibitory effects on various strains of gram positive bacteria [2]: differential growth inhibitory effects

C[C@H](CCC(=O)NCCS(=O)(=O)O)[C@H]1CC[C@H]2[C@@H]3[C@H](O)C[C@@H]4C[C@H](O)CC[C@]4(C)[C@H]3C[C@H](O)[C@]12C [TCA, taurocholic acid]
growth inhibitory effects on various strains of gram positive bacteria [2]: differential growth inhibitory effects
